Marks after values point to notes of the source that are not given here. Starred links: 1 amine or outer side, 2 acyl side, 3 side chain; linkers in the order of their positions; H or OH if unused. Positions of bridges follow the written chain, without caps; N, C: chain ends. Non-standard residues stand in square brackets, D forms with d. Residues, ends and D or L forms follow the SMILES beside them. *: point of attachment. hTyr(3S-OH,4S-OH,3'-OSO3H) = N[C@H](C(=O)O)[C@H](O)[C@@H](O)c1ccc(O)c(OS(=O)(=O)O)c1; Orn(4R-OH,5R-OH) = O=C([C@H](C[C@@H](O)[C@@H](O)N[*:3])N[*:1])[*:2]; Pro(3S-OH,4S-Me) = C[C@H]1CN[C@H](C(=O)O)[C@H]1O; X2 = CCCCCOc1ccc(-c2cc(-c3ccc(C(=O)*)cc3)no2)cc1; Gln(3R-OH) = NC(=O)C[C@@H](O)[C@H](N)C(=O)O; Hyp = O=C(O)[C@@H]1C[C@@H](O)CN1; X1 = CC[C@H](C)CCCCC(=O)*; Dab = NCC[C@H](N)C(=O)O
Tests used:
[1] = Drug recovery in the Sorin ECMO circuit; conditions: phosphorylcholine-coated circuit, whole human blood, 37°C, HPLC-MS/MS, % of 2 min concentration, single measurement
Method: (§1) Four healthy volunteers were recruited. After obtaining informed consent, 402 ml of blood was collected through the cubitus vein using disposable blood bags (Fresenius Kabi), of which 2 ml was used for a routine blood examination. Sorin (LivaNova, London, United Kingdom) and Maquet (Getinge AB, Hirrlingen, Germany) ECMO circuits were used to establish self-circulation and were primed with fresh whole human blood. After the circulation stabilized, the drugs were added to the circuit. Blood samples were collected at different time points, and the drug concentration was measured to observe the recovery rate of different drugs in the ECMO cycle.
(§2) Each circuit consisted of a membrane oxygenator, centrifugal pump, cannula, heat exchanger, and PVC tubing. The materials of each ECMO component are shown in Supplementary Material 1. A reservoir bag containing 30 mL of blood was used to construct a bypass to maintain the pressure of the circuit (Figure 1). Eight hundred milliliters of fresh whole human blood (<1 h old) was used to prime the circuit. Heparin (5,000 U) was added to the circuits to prevent clotting.
(§3) The circuit flow rate was controlled at 4–5 L/min. Circuit temperature was maintained at 37°C.
(§4) These bolus doses were selected to produce concentrations similar to clinical concentrations. The order of administration was determined according to the half-life from long to short. According to the drug instructions, none of the drugs interact with each other ([12]). Two milliliters of physiological saline solution (0.9%) was used to flush the tube after injection of all drugs to avoid drug loss at the entrance of administration.
(§5) In this study, two experiments were carried out and 26 blood samples were analyzed. The first experiment was conducted with the Maquet ECMO circuit. […] The blood samples collected at each time point were measured twice due to the uncertainty of the initial experiment.

[2] = cited from earlier work; for Lipophilicity (log P): ref DrugBank [12]
[3] = Control group: spontaneous drug degradation in whole blood at 37°C; conditions: HPLC-MS/MS; for Drug recovery, Control-3 h (Sorin experiment) / Drug recovery, Control-6 h (Sorin experiment) / Drug recovery, Control-24 h (Sorin experiment): control of Sorin experiment, single measurement; for Drug recovery, Control-3 h (Sorin experiment) / Drug recovery, Control-6 h (Sorin experiment) / Drug recovery, Control-24 h (Sorin experiment) / Mean drug recovery, Control-3 h (Maquet experiment) / Mean drug recovery, Control-6 h (Maquet experiment) / Mean drug recovery, Control-12 h (Maquet experiment) / Mean drug recovery, Control-24 h (Maquet experiment): whole human blood, no circuit, % of 2 min concentration; for Drug recovery, Control-3 h (Sorin experiment) / Mean drug recovery, Control-3 h (Maquet experiment): water bath 37°C 3 h; for Drug recovery, Control-6 h (Sorin experiment) / Mean drug recovery, Control-6 h (Maquet experiment): water bath 37°C 6 h; for Drug recovery, Control-24 h (Sorin experiment) / Drug recovery (%) from control group at 24 h / Mean drug recovery, Control-24 h (Maquet experiment): water bath 37°C 24 h; for Drug recovery (%) from control group at 24 h: controls of both experiments, whole human blood taken 2 min after injection, not passed through circuit, relative to 2 min baseline; for Drug recovery (%) from control group at 24 h / Mean drug recovery, Control-3 h (Maquet experiment) / Mean drug recovery, Control-6 h (Maquet experiment) / Mean drug recovery, Control-12 h (Maquet experiment) / Mean drug recovery, Control-24 h (Maquet experiment): mean (SD), SD; for Mean drug recovery, Control-3 h (Maquet experiment) / Mean drug recovery, Control-6 h (Maquet experiment) / Mean drug recovery, Control-12 h (Maquet experiment) / Mean drug recovery, Control-24 h (Maquet experiment): control of Maquet experiment, n=2; for Mean drug recovery, Control-12 h (Maquet experiment): water bath 37°C 12 h
[4] = ref DrugBank [12]; cited from earlier work
[5] = Drug recovery in blood-primed ex vivo ECMO circuits (average of Maquet and Sorin); conditions: for Drug recovery (%) from circuits at 24 h: average over Maquet and Sorin circuits, closed loop primed with fresh whole human blood, 37°C, pH 7.25–7.55, 4–5 L/min, plasma HPLC-MS/MS, relative to 2 min baseline, mean (SD), SD
Method: as §1, §2, §3, §4

[6] = cited from earlier work
[7] = cited from earlier work; remark: listed apart in the source
[8] = Drug recovery in the Maquet ECMO circuit; conditions: Bioline-coated circuit, whole human blood, 37°C, HPLC-MS/MS, % of 2 min concentration, mean (SD), n=2
Method: as §1, §2, §3, §4, §5

CC[C@H](C)CCCCC(=O)N[C@@H](CCN)C(=O)N[C@H](C(=O)N[C@@H](CCN)C(=O)N[C@H]1CCNC(=O)[C@H]([C@@H](C)O)NC(=O)[C@H](CCN)NC(=O)[C@H](CCN)NC(=O)[C@H](CC(C)C)NC(=O)[C@@H](Cc2ccccc2)NC(=O)[C@H](CCN)NC1=O)[C@@H](C)O [Polymyxin B, polymyxin B] (X1-[Dab]T[Dab][Dab][Dab][dF]L[Dab][Dab]T; lactam 4-C)
Drug recovery, Sorin circuit, 5 min [1]: 118%
Drug recovery, Sorin circuit, 15 min [1]: 86%
Drug recovery, Sorin circuit, 30 min [1]: 84%
Drug recovery, Sorin circuit, 3 h [1]: 117%
Drug recovery, Sorin circuit, 6 h [1]: 74%
Drug recovery, Sorin circuit, 12 h [1]: 74%
Drug recovery, Sorin circuit, 24 h [1]: 61.66 (-)^* %
Lipophilicity (log P) [2]: −4.861
Drug recovery, Control-3 h (Sorin experiment) [3]: 91%
Drug recovery, Control-6 h (Sorin experiment) [3]: 93%
Drug recovery, Control-24 h (Sorin experiment) [3]: 60.10 (-)^* %
Protein binding rate (%) [4]: 79–92%

CC(C)c1cccc(C(C)C)c1O [propofol]
octanol/water partition (log P) [2]: 4.0

CC[C@H](C)C[C@H](C)CCCCCCCCC(=O)N[C@H]1C[C@@H](O)[C@@H](NCCN)NC(=O)[C@@H]2[C@@H](O)CCN2C(=O)[C@H]([C@H](O)CCN)NC(=O)[C@H]([C@H](O)[C@@H](O)c2ccc(O)cc2)NC(=O)[C@@H]2C[C@@H](O)CN2C(=O)[C@H]([C@@H](C)O)NC1=O [Caspofungin, caspofungin]
Drug recovery (%) from circuits at 24 h [5]: 83.26 (6.17) %
Lipophilicity (log P) [2]: −2.798
Drug recovery (%) from control group at 24 h [3]: 85.24 (7.93) %
Protein binding rate (%) [4]: 97%
Average drug recovery at 24 h in the ECMO circuit ([6]; ex vivo experiment by Shekar et al.): 56%

CCCCCOc1ccc(-c2cc(-c3ccc(C(=O)N[C@H]4C[C@@H](O)[C@@H](O)NC(=O)[C@@H]5[C@@H](O)[C@@H](C)CN5C(=O)[C@H]([C@H](O)CC(N)=O)NC(=O)[C@H]([C@H](O)[C@@H](O)c5ccc(O)c(OS(=O)(=O)O)c5)NC(=O)[C@@H]5C[C@@H](O)CN5C(=O)[C@H]([C@@H](C)O)NC4=O)cc3)no2)cc1 [Micafungin, micafungin] (X2-[Orn(4R-OH,5R-OH)]T[Hyp][hTyr(3S-OH,4S-OH,3'-OSO3H)][Gln(3R-OH)][Pro(3S-OH,4S-Me)]; lactam 1-C)
Vd in infants on ECMO, higher than in infants not on ECMO ([7]; infants on ECMO versus infants not on ECMO): 20–90%
Drug recovery, Sorin circuit, 24 h [1]: 66.85 (-)^* %
Lipophilicity (log P) [2]: −1.5
Drug recovery, Control-24 h (Sorin experiment) [3]: 98.82 (-)^* %
Protein binding rate (%) [4]: > 99%
Average drug recovery in the control group at 24 h ([6]; control group, ex vivo study by Watt et al.): 57%
Average drug recovery in the ECMO loop at 24 h ([6]; ex vivo study by Watt et al.): 26–43%

CN(C)c1cc(NC(=O)CNC(C)(C)C)c(O)c2c1C[C@H]1C[C@H]3[C@H](N(C)C)C(O)=C(C(N)=O)C(=O)[C@@]3(O)C(O)=C1C2=O [Tigecycline, tigecycline]
Average Vd in critically ill patients ([7]; critically ill patients, no reference given): 398 L
Drug recovery (%) from circuits at 24 h [5]: 100.03 (13.68) %
Lipophilicity (log P) [2]: 0.8
Drug recovery (%) from control group at 24 h [3]: 144.54 (2.31) %

CCN1CCN(C(=O)N[C@@H](C(=O)N[C@@H]2C(=O)N3C(C(=O)O)=C(CSc4nnnn4C)CS[C@H]23)c2ccc(O)cc2)C(=O)C1=O [Cefoperazone, cefoperazone]
Drug recovery, Sorin circuit, 5 min [1]: 100%
Drug recovery, Sorin circuit, 15 min [1]: 100%
Drug recovery, Sorin circuit, 30 min [1]: 99%
Drug recovery, Sorin circuit, 1 h ([1]; 1 h): 102%
Drug recovery, Sorin circuit, 6 h [1]: 98%
Drug recovery, Sorin circuit, 12 h [1]: 92%
Drug recovery, Sorin circuit, 24 h [1]: 75%
Lipophilicity (log P) [2]: −0.74
Mean drug recovery, Control-3 h (Maquet experiment) [3]: 100% (0%)
Mean drug recovery, Control-6 h (Maquet experiment) [3]: 99% (0%)
Mean drug recovery, Control-12 h (Maquet experiment) [3]: 100% (2%)
Mean drug recovery, Control-24 h (Maquet experiment) [3]: 98% (2%)
Drug recovery, Control-6 h (Sorin experiment) [3]: 98%
Drug recovery, Control-24 h (Sorin experiment) [3]: 98%
Drug recovery (%) from control group at 24 h [3]: 98.30 (1.17) %
Mean drug recovery, Maquet circuit, 5 min [8]: 102% (3%)
Mean drug recovery, Maquet circuit, 15 min [8]: 100% (4%)
Mean drug recovery, Maquet circuit, 30 min [8]: 100% (2%)
Mean drug recovery, Maquet circuit, 1 h [8]: 102% (1%)
Mean drug recovery, Maquet circuit, 3 h [8]: 98% (2%)
Mean drug recovery, Maquet circuit, 6 h [8]: 99% (1%)
Mean drug recovery, Maquet circuit, 12 h [8]: 91% (5%)
Mean drug recovery, Maquet circuit, 24 h [8]: 81% (1%)

C[C@@H](O)[C@H]1C(=O)N2C(C(=O)O)=C(S[C@@H]3CN[C@H](C(=O)N(C)C)C3)[C@H](C)[C@H]12 [Meropenem, meropenem]
Drug recovery (%) from circuits at 24 h [5]: 45.37 (3.58) %
Average loss at 24 h in the circuits ([5]; loss, average of Maquet and Sorin circuits): 55%
Drug recovery, Sorin circuit, 3 h [1]: 100%
Drug recovery, Sorin circuit, 6 h [1]: 92%
Drug recovery, Sorin circuit, 12 h [1]: 74%
Drug recovery, Sorin circuit, 24 h [1]: 47%
Lipophilicity (log P) [2]: −0.6
Mean drug recovery, Control-3 h (Maquet experiment) [3]: 97% (4%)
Mean drug recovery, Control-6 h (Maquet experiment) [3]: 91% (9%)
Mean drug recovery, Control-12 h (Maquet experiment) [3]: 77% (8%)
Mean drug recovery, Control-24 h (Maquet experiment) [3]: 65% (10%)
Drug recovery, Control-3 h (Sorin experiment) [3]: 97%
Drug recovery, Control-6 h (Sorin experiment) [3]: 102%
Drug recovery, Control-24 h (Sorin experiment) [3]: 95%
Drug recovery (%) from control group at 24 h [3]: 74.84 (19.10) %
Mean drug recovery, Maquet circuit, 5 min [8]: 100% (0%)
Mean drug recovery, Maquet circuit, 15 min [8]: 100% (1%)
Mean drug recovery, Maquet circuit, 30 min [8]: 101% (4%)
Mean drug recovery, Maquet circuit, 1 h [8]: 98% (0%)
Mean drug recovery, Maquet circuit, 3 h [8]: 93% (2%)
Mean drug recovery, Maquet circuit, 6 h [8]: 83% (7%)
Mean drug recovery, Maquet circuit, 12 h [8]: 64% (2%)
Mean drug recovery, Maquet circuit, 24 h [8]: 45% (5%)

C[C@@H](c1ncncc1F)[C@](O)(Cn1cncn1)c1ccc(F)cc1F [Voriconazole, voriconazole]
Lipophilicity (log P) [2]: 2.561

From PMC8671752, “Effects of ex vivo Extracorporeal Membrane Oxygenation Circuits on Sequestration of Antimicrobial Agents” (Frontiers in Medicine, 2021)
